# Source: PMC12222587, “A2B adenosine receptor-triggered intracellular calcium mobilization: Cell type-dependent involvement of Gi, Gq, Gs proteins and protein kinase C” (Purinergic Signalling, 2025)
# Entries after “also recorded” stand apart in the source; their conditions may differ.
# What was measured:
# A2BAR = target: T1, A2BAR (Homo sapiens, UniProt P29275); assay: Intracellular calcium mobilization, T24 bladder cancer cells, native A2BAR (NECA); format: cell-based
# T1 sequence (P29275 1-332): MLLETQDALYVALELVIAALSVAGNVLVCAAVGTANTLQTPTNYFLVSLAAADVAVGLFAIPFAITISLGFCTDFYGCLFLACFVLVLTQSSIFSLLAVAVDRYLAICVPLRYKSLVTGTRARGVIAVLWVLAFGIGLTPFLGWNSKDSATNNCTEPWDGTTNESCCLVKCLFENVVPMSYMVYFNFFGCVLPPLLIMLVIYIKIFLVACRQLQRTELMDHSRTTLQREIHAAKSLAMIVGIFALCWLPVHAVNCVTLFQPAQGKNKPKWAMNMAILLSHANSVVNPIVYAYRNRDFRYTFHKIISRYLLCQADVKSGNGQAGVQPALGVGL
# β2-adrenergic receptor = β2-adrenergic receptor (Homo sapiens, UniProt P07550); assay: Intracellular calcium mobilization, T24 bladder cancer cells, endogenous β2-adrenergic receptor; format: cell-based
# [1] = test system: human erythroleukemia cells; conditions: cited from earlier work
# HMC-1 cells = conditions: cited from earlier work
substance,measurement,setting,value
Cholera toxin [CTX],Effect on native A2BAR (NECA)-triggered calcium mobilization,A2BAR,"CTX sensitive (5), Variable, depending on cell type^b, c"
same,Effect on formoterol-induced calcium mobilization (β2-adrenergic receptor),β2-adrenergic receptor,effect larger than it was on the NECA-induced Ca^2+ response; also recorded: CTX sensitive (6)
same,Sensitivity of NECA-induced Ca2+ increase to toxin,[1],"^c NECA-induced Ca^2+ increase in human erythroleukemia cells was sensitive to CTX, Feoktistov et al., 1994 [31]"
same,Sensitivity of NECA-induced Ca2+ increase to toxin,HMC-1 cells,"^b NECA-induced Ca^2+ increase in HMC-1 cells was insensitive to CTX and PTX, Feoktistov et al., 1995 [30]"
